Legend:
Type in all cases: cell-based
LNCaP cell cycle = assay: Cell cycle measurement by DNA content flow cytometry, LNCaP; details: LNCaP cells, exposed 24-48 hours
Experimental: (§1) The cells were washed with phosphate buffered saline (PBS) and fixed in ice-cold 70% ethanol. Aliquots of fixed cells were rehydrated in PBS and stained with 1.0 microgram/milliliter DAPI (4,6-diamidino-2-phenylindole from Eastman Kodak, Rochester, NY), and dissolved in 10 millimolar piperazine-NN-bis-2-ethane-sulfonic acid buffer (Calbiochem, La Jolla, CA) containing 100 millimolar NaCl, 2mM MgCl2 and 0,1% Triton X-100 (Sigma) at pH 6.8 as previously described by Halicka et al. (H. D. Halicka, B. Ardelt, G. Juan, A. Mittelman, S. Chen, F. Traganos and Z. Darzynkiewicz, "Apoptosis and Cell Cycle Effects Induced by Extracts of the Chinese Herbal Preparation of PC SPES", International J. of Oncology (1997), 11: 437-448).
(§2) The cellular DNA content was measured with an ELITE ESP flow cytometer (Coulter Inc., Fl.) using UV laser illumination. The multicycle program was used to deconvolute the DNA frequency histograms to estimate the frequency of cells in different phases of the cell cycle.

DU-145 cell cycle = assay: Cell cycle measurement by DNA content flow cytometry, DU-145; details: DU-145 cells, protocol of Example 3
Experimental: as §1, §2
A prolongation in the G2M phase leads to the suppression of DU-145 cell proliferation.

hERα = molecular target: T1, hERα (Homo sapiens, UniProt P03372); assay: ERE-LUC reporter gene activation in transfected HEK 293 cells, ER alpha; details: 0 to 9 µg/ml, 20 hours
T1 construct: expressed in transfected cells; host or cells: HEK 293 cells (ATCC CRL-1573)
T1 sequence (P03372 whole entry): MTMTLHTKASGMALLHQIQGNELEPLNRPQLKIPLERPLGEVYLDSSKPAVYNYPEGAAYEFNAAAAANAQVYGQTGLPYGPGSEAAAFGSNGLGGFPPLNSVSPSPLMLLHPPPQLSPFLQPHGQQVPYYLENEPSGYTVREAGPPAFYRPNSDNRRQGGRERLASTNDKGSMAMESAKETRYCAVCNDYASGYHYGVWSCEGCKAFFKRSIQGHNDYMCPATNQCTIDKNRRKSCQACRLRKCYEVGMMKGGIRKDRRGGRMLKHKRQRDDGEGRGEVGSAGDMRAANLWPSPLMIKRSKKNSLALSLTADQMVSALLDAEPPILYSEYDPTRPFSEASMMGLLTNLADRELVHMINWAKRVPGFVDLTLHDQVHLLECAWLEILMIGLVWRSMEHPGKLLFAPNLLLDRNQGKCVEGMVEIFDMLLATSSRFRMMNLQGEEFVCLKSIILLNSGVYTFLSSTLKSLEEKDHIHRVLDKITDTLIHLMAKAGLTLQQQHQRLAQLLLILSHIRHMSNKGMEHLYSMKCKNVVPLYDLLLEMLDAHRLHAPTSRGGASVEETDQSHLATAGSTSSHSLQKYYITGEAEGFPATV
Source text: (§3) HEK 293 cells (ATCC CRL-1573) were transfected with an expression vector for hERα and hERβ respectively, and an ERE-LUC reporter gene (plus a TK-LUC reporter for normalization) following the protocol of Yoon et al ("Differential activation of wild-type and variant forms of estrogen receptor α by synthetic and natural estrogenic compounds using a promoter containing three estrogen-responsive elements", J. Steroid Biochem. & Molecular Biology (2000), 28: pages 25-32).

hERβ = molecular target: T2, hERβ (Homo sapiens, UniProt Q92731); assay: ERE-LUC reporter gene activation in transfected HEK 293 cells, ER beta; details: 0 to 9 µg/ml, 20 hours
T2 construct: expressed in transfected cells; host or cells: HEK 293 cells (ATCC CRL-1573)
T2 sequence (Q92731 whole entry): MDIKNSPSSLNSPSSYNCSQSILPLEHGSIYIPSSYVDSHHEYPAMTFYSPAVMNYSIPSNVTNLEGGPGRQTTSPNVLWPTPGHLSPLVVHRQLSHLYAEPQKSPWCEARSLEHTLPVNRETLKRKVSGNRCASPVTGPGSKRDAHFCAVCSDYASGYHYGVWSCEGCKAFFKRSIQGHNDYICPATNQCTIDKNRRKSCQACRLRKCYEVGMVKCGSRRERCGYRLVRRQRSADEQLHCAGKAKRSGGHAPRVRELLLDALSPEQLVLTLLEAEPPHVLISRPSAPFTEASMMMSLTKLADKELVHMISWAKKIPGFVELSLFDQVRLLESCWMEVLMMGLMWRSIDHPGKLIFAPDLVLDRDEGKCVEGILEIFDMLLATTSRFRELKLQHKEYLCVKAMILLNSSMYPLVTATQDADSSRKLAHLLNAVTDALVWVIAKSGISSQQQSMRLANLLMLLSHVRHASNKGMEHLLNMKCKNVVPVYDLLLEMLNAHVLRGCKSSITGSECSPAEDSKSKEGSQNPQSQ
Source text: as §3

Compound | effect on G1, S, and G2M phases of the LNCaP cell cycle (LNCaP cell cycle) | effect on the DU-145 cell cycle (DU-145 cell cycle) | ERα-Luc reporter gene activation (hERα) | ERβ-Luc reporter gene activation (hERβ)
COc1c(O)cc(O)c2c(=O)cc(-c3ccccc3)oc12 [Wogonin, 5,7-dihydroxy-8-methoxy-flavone] | induced a G1 phase arrest | prolonged the G2M phase | activated | activated
O=C(/C=C/c1ccc(O)cc1)c1ccc(O)cc1O [isoliquiritigenin, 2',4,4'-trihydroxychalcone] | induced a G2M phase arrest | – | activated | activated

— patent EP1808172A2, “Botanical extract compositions and methods of use” (The Medical Research and Education Trust, priority 2002, dated 2003)
